Measurements taken from ChEMBL document CHEMBL5150019, “Targeting Extracellular Signal-Regulated Protein Kinase 1/2 (ERK1/2) in Cancer: An Update on Pharmacological Small-Molecule Inhibitors” (J Med Chem, 2022).

How the values were obtained:
MCF7 = test: Antiproliferative activity in human MCF7 cells assessed as cell growth inhibition measured after 24 hrs by MTT assay; assay type: functional, cell-based; details: MCF7, 24 h
[1] = molecular target: Mitogen-activated protein kinase 1 (Rattus norvegicus, UniProt P63086); test: Binding affinity to rat full-length ERK2 using FQRKTLQRRNLKGLNLNL-XXX-TGPLSPGPF peptide as substrate in presence of [gamma33P]ATP by scintillation counter analysis
[2] = molecular target: T1, Mitogen-activated protein kinase 1 (Homo sapiens, UniProt P28482); test: Inhibition of ERK2 (unknown origin)
[3] = molecular target: T1, Mitogen-activated protein kinase 1; test: Binding affinity to ERK2 (unknown origin)
[4] = molecular target: T2, Mitogen-activated protein kinase 3 (Homo sapiens, UniProt P27361); test: Inhibition of ERK1 (unknown origin)
[5] = Antitumor activity against patient-derived Pancreatic cancer cell xenografted in NMRI nu/nu mouse PAXF-2059 model assessed as cell growth inhibition; assay type: functional, cell-based; details: Homo sapiens
Lung cancer cell line = test: Antitumor activity against patient-derived Lung cancer cell line xenografted in NMRI nu/nu mouse LXFA-983 model assessed as cell growth inhibition; assay type: functional, cell-based; details: Homo sapiens
[6] = Antitumor activity against patient-derived Colorectal cancer cell xenografted in NMRI nu/nu mouse CXF-243 model assessed as cell growth inhibition; assay type: functional, cell-based; details: Homo sapiens
[7] = Antiproliferative activity in mouse MB49 cells assessed as cell growth inhibition; assay type: functional, cell-based
UMUC3 = test: Antiproliferative activity in human UMUC3 cells assessed as cell growth inhibition; assay type: functional, cell-based
[8] = molecular target: T2, Mitogen-activated protein kinase 3; test: Binding affinity to ERK1 (unknown origin)
[9] = molecular target: T2, Mitogen-activated protein kinase 3; test: Binding affinity to ERK1 (unknown origin) measured after 20 mins in presence of [gamma33P]ATP by scintillation counter analysis

T2 sequence (P27361 whole entry): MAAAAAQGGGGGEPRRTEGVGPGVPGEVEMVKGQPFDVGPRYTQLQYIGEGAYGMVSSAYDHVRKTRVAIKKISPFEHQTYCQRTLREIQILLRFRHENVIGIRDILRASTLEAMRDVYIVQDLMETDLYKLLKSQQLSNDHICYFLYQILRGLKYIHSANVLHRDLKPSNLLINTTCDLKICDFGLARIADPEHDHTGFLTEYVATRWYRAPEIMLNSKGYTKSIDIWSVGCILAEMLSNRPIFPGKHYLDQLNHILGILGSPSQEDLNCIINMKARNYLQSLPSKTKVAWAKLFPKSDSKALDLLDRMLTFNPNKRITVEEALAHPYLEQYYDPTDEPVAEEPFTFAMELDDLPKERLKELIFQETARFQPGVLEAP
T1 sequence (P28482 whole entry): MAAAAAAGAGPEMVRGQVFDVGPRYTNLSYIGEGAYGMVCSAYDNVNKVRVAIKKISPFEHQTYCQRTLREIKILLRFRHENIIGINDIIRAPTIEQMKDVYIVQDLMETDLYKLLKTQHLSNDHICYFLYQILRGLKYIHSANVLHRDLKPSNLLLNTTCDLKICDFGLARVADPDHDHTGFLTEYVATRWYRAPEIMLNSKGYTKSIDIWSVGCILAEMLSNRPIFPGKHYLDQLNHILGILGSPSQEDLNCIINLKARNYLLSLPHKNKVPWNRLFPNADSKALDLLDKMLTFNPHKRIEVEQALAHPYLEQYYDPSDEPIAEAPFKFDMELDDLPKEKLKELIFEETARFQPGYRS
Chain of Mitogen-activated protein kinase 1 (Rattus norvegicus, UniProt P63086) (P63086 whole entry): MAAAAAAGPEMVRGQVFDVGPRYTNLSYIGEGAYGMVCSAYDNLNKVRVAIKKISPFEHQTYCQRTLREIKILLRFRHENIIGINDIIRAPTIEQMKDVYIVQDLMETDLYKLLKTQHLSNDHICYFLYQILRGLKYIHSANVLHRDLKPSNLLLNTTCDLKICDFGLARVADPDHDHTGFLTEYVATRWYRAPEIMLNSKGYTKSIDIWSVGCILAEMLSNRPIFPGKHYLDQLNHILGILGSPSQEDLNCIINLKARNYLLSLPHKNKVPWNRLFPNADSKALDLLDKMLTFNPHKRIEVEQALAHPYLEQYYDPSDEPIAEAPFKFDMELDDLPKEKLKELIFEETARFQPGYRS

Compound `Clc1cc(Cl)cc(C(Cn2ccnc2)OCc2nc3ccccc3s2)c1` (stereo unspecified) has an IC50 (MCF7) of 5000 nM.
`O=[N+]([O-])c1cnc(Sc2nnc(O)n2-c2ccc3c(c2)OCCO3)s1` showed a Ki [1] of 2300 nM.
With `COc1ccc2[nH]cc(/C=C3\C(=O)Nc4ccc(NC(=O)CCN5CCCCC5)cc43)c2c1` the IC50 [2] was 500 nM.
In the case of `N=C(N)NCCC[C@H]1CNC(=N)N1CCN(CCN1C[C@H](CCCNC(=N)N)N(CCCC2CCCCC2)C1=N)CCN1C[C@H](CCCNC(=N)N)N(CCc2cccc(Br)c2)C1=N`, the Kd [3] is reported as 380 nM and the IC50 [2] is reported as 9900 nM.
`C=CC(=O)Nc1cc(C)ccc1Nc1nc(Nc2cc(OC)ncc2C)ncc1C(F)(F)F` showed an IC50 [2] of 10 nM, an IC50 [4] of 10 nM and an IC50 [5] of 621 nM. For the same compound, the IC50 (Lung cancer cell line) was 800 nM and the IC50 [6] was 586 nM.
`Cc1cnc(NC2CCOCC2)nc1-n1cnc(C(=O)N[C@H](CN)c2cc(F)cc(Cl)c2)c1` [ASN007] gave an IC50 [2] of 2 nM and an IC50 [4] of 2 nM.
Work on `O=C1Nc2cc3[nH]nc(-c4ccncc4)c3cc2CN1Cc1ccccc1` [KO-947] yielded an IC50 [2] of 10 nM and an IC50 [4] of 10 nM.
With `N=C(N)NC(=N)NCCc1ccccc1` [PHENFORMIN] the IC50 [7] was 570000 nM and the IC50 (UMUC3) was 250000 nM.
`Cn1nccc1Nc1nccc(-c2cc3c(s2)C(C)(C)N(CCN2CCOCC2)C3=O)n1` [TEMUTERKIB] showed a Ki [3] of 0.064 nM, an IC50 [2] of 5 nM and an IC50 [4] of 5 nM. The Ki [8] was 0.65 nM.
For `CC(C)Nc1cc(-c2c[nH]c(C(=O)N[C@H](CO)c3cccc(Cl)c3)c2)c(Cl)cn1` [ULIXERTINIB], the Ki [9] was < 0.3 nM.
